Source: patent US12077503B2, “Substituted cyclic amides and their use as herbicides” (FMC CORPORATION, priority 2015, dated 2024)

Columns and labels:
Assay type in all cases: in vivo
corn (Zea mays) [1] = assay: Test G Post-Emergence Protocol; conditions: Zea mays, post-emergence, 312 h; for plant injury at 15.625 g/ha: 15.625 g ai/ha, evaluated after 13 days (100=total damage to plant; 0=no damage to plant), read-out: Corn damage rating; for plant injury at 62.5 g/ha: 62.5 g ai/ha, read-out: Corn damage rating (100=total damage to plant; 0=no damage to plant); for plant injury at 62.5 g/ha / plant injury at 250 g/ha: evaluated after 13 days; for plant injury at 250 g/ha: 250 g ai/ha, read-out: damage to plant, Corn (100=total damage to plant; 0=no damage to plant)
Outline: (§1)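 Seedlings grown 8 days in soil in a glasshouse (24/16 °C day/night, 14 h light, 65% humidity) were sprayed post-emergence with compound in acetone/water 50:50 plus 0.5% Tween 20 at 15.625, 62.5 or 250 g/ha. Damage was scored after 13 days on a 0–100 scale (100 = total damage).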

[2] = tested on: velvetleaf (Abutilon theophrasti); assay: Test G Post-Emergence Protocol; conditions: Abutilon theophrasti, post-emergence, 312 h; for pest or weed control at 15.625 g/ha: 15.625 g ai/ha, evaluated after 13 days (100=total damage to plant; 0=no damage to plant), read-out: Velvetleaf damage rating; for pest or weed control at 62.5 g/ha: 62.5 g ai/ha, read-out: Velvetleaf damage rating (100=total damage to plant; 0=no damage to plant); for pest or weed control at 62.5 g/ha / pest or weed control at 250 g/ha: evaluated after 13 days; for pest or weed control at 250 g/ha: 250 g ai/ha, read-out: damage to plant, Velvetleaf (100=total damage to plant; 0=no damage to plant)
Outline: as §1

[3] = tested on: giant foxtail (Setaria faberi); assay: Test G Post-Emergence Protocol; conditions: Setaria faberi, post-emergence, 312 h; for pest or weed control at 15.625 g/ha: 15.625 g ai/ha, evaluated after 13 days (100=total damage to plant; 0=no damage to plant), read-out: Foxtail, Giant damage rating; for pest or weed control at 62.5 g/ha: 62.5 g ai/ha, read-out: Foxtail, Giant damage rating (100=total damage to plant; 0=no damage to plant); for pest or weed control at 62.5 g/ha / pest or weed control at 250 g/ha: evaluated after 13 days; for pest or weed control at 250 g/ha: 250 g ai/ha, read-out: damage to plant, Foxtail, Giant (100=total damage to plant; 0=no damage to plant)
Outline: as §1

[4] = tested on: redroot pigweed (Amaranthus retroflexus); assay: Test G Post-Emergence Protocol; conditions: Amaranthus retroflexus, post-emergence, 312 h; for pest or weed control at 15.625 g/ha: 15.625 g ai/ha, evaluated after 13 days (100=total damage to plant; 0=no damage to plant), read-out: Pigweed, Redroot damage rating; for pest or weed control at 62.5 g/ha: 62.5 g ai/ha, read-out: Pigweed, Redroot damage rating (100=total damage to plant; 0=no damage to plant); for pest or weed control at 62.5 g/ha / pest or weed control at 250 g/ha: evaluated after 13 days; for pest or weed control at 250 g/ha: 250 g ai/ha, read-out: damage to plant, Pigweed, Redroot (100=total damage to plant; 0=no damage to plant)
Outline: as §1

[5] = tested on: barnyardgrass (Echinochloa crus-galli); assay: Test G Post-Emergence Protocol; conditions: Echinochloa crus-galli, post-emergence, 312 h; for pest or weed control at 15.625 g/ha: 15.625 g ai/ha, evaluated after 13 days (100=total damage to plant; 0=no damage to plant), read-out: Barnyardgrass damage rating; for pest or weed control at 62.5 g/ha: 62.5 g ai/ha, read-out: Barnyardgrass damage rating (100=total damage to plant; 0=no damage to plant); for pest or weed control at 62.5 g/ha / pest or weed control at 250 g/ha: evaluated after 13 days; for pest or weed control at 250 g/ha: 250 g ai/ha, read-out: damage to plant, Barnyardgrass (100=total damage to plant; 0=no damage to plant)
Outline: as §1

[6] = tested on: ivy-leaved morning glory (Ipomoea hederacea); assay: Test G Post-Emergence Protocol; conditions: Ipomoea, post-emergence, 312 h; for pest or weed control at 15.625 g/ha: 15.625 g ai/ha, evaluated after 13 days (100=total damage to plant; 0=no damage to plant), read-out: Morningglory, Ivy-leaved damage rating; for pest or weed control at 62.5 g/ha: 62.5 g ai/ha, read-out: Morningglory, Ivy-leaved damage rating (100=total damage to plant; 0=no damage to plant); for pest or weed control at 62.5 g/ha / pest or weed control at 250 g/ha: evaluated after 13 days; for pest or weed control at 250 g/ha: 250 g ai/ha, read-out: damage to plant, Morningglory, Ivy-leaved (100=total damage to plant; 0=no damage to plant)
Outline: as §1

corn (Zea mays) [7] = assay: Test G Pre-Emergence Protocol; conditions: Zea mays, pre-emergence, 312 h, evaluated after 13 days; for plant injury at 15.625 g/ha: 15.625 g ai/ha; for plant injury at 15.625 g/ha / plant injury at 250 g/ha: read-out: Corn damage rating (100=total damage to plant; 0=no damage to plant); for plant injury at 62.5 g/ha: 62.5 g ai/ha, 100=total damage to plant, 0=no damage to plant, read-out: plant damage rating, Corn; for plant injury at 250 g/ha: 250 g ai/ha
Outline: (§2)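 Herbicidal effect was rated 13 days post-application on a scale where 100 equals total damage. Spraying took place the day after sowing, using 15.625, 62.5 or 250 g/ha of compound in a 50:50 acetone/water solution with 0.5% Tween 20.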

[8] = tested on: velvetleaf (Abutilon theophrasti); assay: Test G Pre-Emergence Protocol; conditions: Abutilon theophrasti, pre-emergence, 312 h, evaluated after 13 days; for pest or weed control at 15.625 g/ha: 15.625 g ai/ha; for pest or weed control at 15.625 g/ha / pest or weed control at 250 g/ha: read-out: Velvetleaf damage rating (100=total damage to plant; 0=no damage to plant); for pest or weed control at 62.5 g/ha: 62.5 g ai/ha, 100=total damage to plant, 0=no damage to plant, read-out: plant damage rating, Velvetleaf; for pest or weed control at 250 g/ha: 250 g ai/ha
Outline: as §2

[9] = tested on: giant foxtail (Setaria faberi); assay: Test G Pre-Emergence Protocol; conditions: Setaria faberi, pre-emergence, 312 h, evaluated after 13 days; for pest or weed control at 15.625 g/ha: 15.625 g ai/ha; for pest or weed control at 15.625 g/ha / pest or weed control at 250 g/ha: read-out: Foxtail, Giant damage rating (100=total damage to plant; 0=no damage to plant); for pest or weed control at 62.5 g/ha: 62.5 g ai/ha, 100=total damage to plant, 0=no damage to plant, read-out: plant damage rating, Foxtail, Giant; for pest or weed control at 250 g/ha: 250 g ai/ha
Outline: as §2

[10] = tested on: redroot pigweed (Amaranthus retroflexus); assay: Test G Pre-Emergence Protocol; conditions: Amaranthus retroflexus, pre-emergence, 312 h, evaluated after 13 days; for pest or weed control at 15.625 g/ha: 15.625 g ai/ha; for pest or weed control at 15.625 g/ha / pest or weed control at 250 g/ha: read-out: Pigweed, Redroot damage rating (100=total damage to plant; 0=no damage to plant); for pest or weed control at 62.5 g/ha: 62.5 g ai/ha, 100=total damage to plant, 0=no damage to plant, read-out: plant damage rating, Pigweed, Redroot; for pest or weed control at 250 g/ha: 250 g ai/ha
Outline: as §2

[11] = tested on: barnyardgrass (Echinochloa crus-galli); assay: Test G Pre-Emergence Protocol; conditions: Echinochloa crus-galli, pre-emergence, 312 h, evaluated after 13 days; for pest or weed control at 15.625 g/ha: 15.625 g ai/ha, read-out: Barnyard grass damage rating (100=total damage to plant; 0=no damage to plant); for pest or weed control at 62.5 g/ha: 62.5 g ai/ha, 100=total damage to plant, 0=no damage to plant, read-out: plant damage rating, Barnyardgrass; for pest or weed control at 250 g/ha: 250 g ai/ha, read-out: Barnyardgrass damage rating (100=total damage to plant; 0=no damage to plant)
Outline: as §2

[12] = tested on: ivy-leaved morning glory (Ipomoea hederacea); assay: Test G Pre-Emergence Protocol; conditions: Ipomoea, pre-emergence, 312 h, evaluated after 13 days; for pest or weed control at 15.625 g/ha: 15.625 g ai/ha, read-out: Morning-glory, Ivy-leaved damage rating (100=total damage to plant; 0=no damage to plant); for pest or weed control at 62.5 g/ha: 62.5 g ai/ha, 100=total damage to plant, 0=no damage to plant, read-out: plant damage rating, Morningglory, Ivy-leaved; for pest or weed control at 250 g/ha: 250 g ai/ha, read-out: Morningglory, Ivy-leaved damage rating (100=total damage to plant; 0=no damage to plant)
Outline: as §2

Row | SMILES | plant injury at 15.625 g/ha (corn (Zea mays) [1]) | plant injury at 62.5 g/ha (corn (Zea mays) [1]) | plant injury at 250 g/ha (corn (Zea mays) [1]) | pest or weed control at 15.625 g/ha [2] | pest or weed control at 62.5 g/ha [2] | pest or weed control at 250 g/ha [2] | pest or weed control at 15.625 g/ha [3] | pest or weed control at 62.5 g/ha [3] | pest or weed control at 250 g/ha [3] | pest or weed control at 15.625 g/ha [4] | pest or weed control at 62.5 g/ha [4] | pest or weed control at 250 g/ha [4] | pest or weed control at 15.625 g/ha [5] | pest or weed control at 62.5 g/ha [5] | pest or weed control at 250 g/ha [5] | pest or weed control at 15.625 g/ha [6] | pest or weed control at 62.5 g/ha [6] | pest or weed control at 250 g/ha [6] | plant injury at 15.625 g/ha (corn (Zea mays) [7]) | plant injury at 62.5 g/ha (corn (Zea mays) [7]) | further results
1 | Cc1ncsc1NC(=O)[C@@H]1C(=O)N(C)C[C@H]1c1ccc(C(F)(F)F)cc1 (racemic) [Compound 1635] | 0% | 0% | 0% | 0% | 0% | 0% | 0% | 10% | 40% | 0% | 0% | 10% | 0% | 0% | 30% | 0% | 0% | 0% | 0% | 0% | plant injury at 250 g/ha (corn (Zea mays) [7]): 0%; pest or weed control at 15.625 g/ha [8]: 0%; pest or weed control at 62.5 g/ha [8]: 0%; pest or weed control at 250 g/ha [8]: 0%; pest or weed control at 15.625 g/ha [9]: 0%; pest or weed control at 62.5 g/ha [9]: 0%; pest or weed control at 250 g/ha [9]: 0%; pest or weed control at 15.625 g/ha [10]: 0%; pest or weed control at 62.5 g/ha [10]: 0%; pest or weed control at 250 g/ha [10]: 0%; pest or weed control at 15.625 g/ha [11]: 0%; pest or weed control at 62.5 g/ha [11]: 0%; pest or weed control at 250 g/ha [11]: 0%; pest or weed control at 15.625 g/ha [12]: 0%; pest or weed control at 62.5 g/ha [12]: 0%; pest or weed control at 250 g/ha [12]: 0%
2 | Cc1nc(NC(=O)[C@@H]2C(=O)N(C)C[C@H]2c2ccc(C(F)(F)F)cc2)ccc1Cl (racemic) [Compound 1642] | 0% | 0% | 0% | 0% | 0% | 0% | 0% | 30% | 70% | 0% | 0% | 20% | 0% | 0% | 10% | 0% | 0% | 0% | 0% | 0% | plant injury at 250 g/ha (corn (Zea mays) [7]): 10%; pest or weed control at 15.625 g/ha [8]: 0%; pest or weed control at 62.5 g/ha [8]: 0%; pest or weed control at 250 g/ha [8]: 0%; pest or weed control at 15.625 g/ha [9]: 0%; pest or weed control at 62.5 g/ha [9]: 0%; pest or weed control at 250 g/ha [9]: 20%; pest or weed control at 15.625 g/ha [10]: 0%; pest or weed control at 62.5 g/ha [10]: 0%; pest or weed control at 250 g/ha [10]: 0%; pest or weed control at 15.625 g/ha [11]: 0%; pest or weed control at 62.5 g/ha [11]: 0%; pest or weed control at 250 g/ha [11]: 0%; pest or weed control at 15.625 g/ha [12]: 0%; pest or weed control at 62.5 g/ha [12]: 0%; pest or weed control at 250 g/ha [12]: 0%
